Assay results reported in patent US3937818A, “Benzylamine narcotic antagonists” (American Home Products Corporation, priority 1974, dated 1976).

Tested on: Morphine Induced Loss of Righting Reflex
Assay: Antagonism of Morphine Induced Loss of Righting Reflex
Type: in vivo, male Charles River rats
Conditions: Rattus norvegicus, im; rats; morphine base 75 mg/kg subcutaneously; antagonist intramuscularly 40 minutes after the morphine; measured at 20 minute intervals for 2 hours; read-out: ED50 (dose for 50 percent reversal of the loss of righting reflex)
Description: Groups of three male Charles River rats (160 to 200 g.) were dosed subcutaneously with morphine base at 75 mg/kg. The degree of narcosis was measured at 15 and 30 minutes after injection. Criterion was loss of righting reflex. Antagonists were administered 40 minutes after the morphine. The degree of antagonism was measured at 20 minute intervals for 2 hours. Nalorphine at 2 mg/kg. served as a positive control while one group of morphinized rats in each determination received no antagonist and served as negative controls. Compounds were dissolved in water or suspended in Tween-80 and water and were administered intramuscularly. Each dose of the antagonist was tested in a minimum of three experiments. At least three doses of each antagonist was used to determine the ED50. For each experiment the degree of reversal, by the antagonist, of the loss of righting reflex induced by morphine was calculated in the following manner. The total number of periods of loss of righting reflex in the experimental group was divided by the total number of periods of loss of righting reflex in the control group. This number was converted to percent and subtracted from 100 to give percent reversal of loss of righting reflex. The dose for which a 50 percent reversal of the loss of righting reflex was observed is the ED50.

With `CN(C)C(c1cccc(O)c1)[C@@H]1CCCC[C@@H]1OCc1ccccc1` (stereo partly drawn) [(dl)-α-dimethylamino-α-(cis-2-benzyloxycyclohexyl)-m-cresol] the ED50 was 0.95 mg/kg.

`CN(C)C(c1cccc(O)c1)[C@@H]1CCCC[C@@H]1OCc1ccccc1` (single isomer, unassigned) [(l)-α-dimethylamino-α-(cis-2-benzyloxycyclohexyl)-m-cresol] was tested, and the ED50 was 0.35 mg/kg.

`C=CCN1CC[C@]23c4c5ccc(O)c4O[C@H]2[C@@H](O)C=C[C@H]3[C@H]1C5` [Nalorphine, reference compound] gave an ED50 of 1 mg/kg.

In the case of `CCO[C@@H]1CCCC[C@@H]1C(c1cccc(O)c1)N(C)C` (stereo partly drawn) [(dl)-α-dimethylamino-α-(cis-2-ethoxycyclohexyl)-m-cresol], the ED50 is reported as 2 mg/kg.
